Measured values published in patent US20220389465A1, “METHODS OF REDUCING BIURET IN UREA COMPOSITIONS” (Regents of the University of Minnesota, priority 2019, published 2022).

What was measured:
[1] = target: T1, triuret hydrolase (TrtA) from Herbaspirillum sp. BH-1 (Herbaspirillum sp. BH-1, UniProt A0A2N6JFX7); assay: Kinetic constants of triuret hydrolase (Km for triuret, inhibition by urea, FIG. 16B); type: biochemical; conditions: urea concentrations up to 50 mM
T1 sequence (A0A2N6JFX7 1-227): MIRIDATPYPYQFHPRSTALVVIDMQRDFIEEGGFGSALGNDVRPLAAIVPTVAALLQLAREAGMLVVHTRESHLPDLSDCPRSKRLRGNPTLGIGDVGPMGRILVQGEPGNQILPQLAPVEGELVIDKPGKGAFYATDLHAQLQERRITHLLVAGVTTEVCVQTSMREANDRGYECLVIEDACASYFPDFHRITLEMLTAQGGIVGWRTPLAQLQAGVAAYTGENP

[2] = tested on: native biuret hydrolase (BiuH) from Herbaspirillum sp. BH-1, six-histidine tag; assay: BiuH activity in the presence of urea (Berthelot ammonia assay, FIGS. 4, 5A-5B); type: biochemical
Procedure: FIG. 4. Evaluation of urea inhibition of biuret hydrolase and various urea concentrations. Biuret was added at 0.8 mM concentration and 30 microgram enzyme per ml incubated for 30 minutes.
(§1) Analytical methods: The colorimetric Berthelot ammonia assay was used to measure residual ammonium (NH4^+) present in the urea and to detect NH4^+ released from the residual biuret in urea by addition of biuret hydrolase (BiuH) enzyme. The assay was conducted by adding 0.100 ml of sample directly to 0.300 ml of solution A (10 g/L phenol and 0.050 g/L sodium nitroprusside), followed by addition of 0.400 ml of solution B (5 g/L sodium hydroxide and 8.25 ml/L of commercial chlorine bleach or 5.25% sodium hypochlorite). The reactions were pulsed on a vortex mixer, incubated at 37° C. for 60 min, and then absorbance at 630 nm was read with a Beckman-Coulter DU-640 spectrophotometer. Quantification of NH4^+ was done via a standard curve prepared from ammonium chloride (NH4Cl) (Sigma-Aldrich, St. Louis, Mo.) standards at 5-1000 μM in deionized reverse osmosis (DI/RO) water that were analyzed with the Berthelot reaction.
Enzyme purification: A synthetic gene encoding the native biuret hydrolase from Herbaspirillum sp. BH-1 was expressed with a C- or N-terminal six-histidine tag from an isopropyl-β-D-thiogalactoside (IPTG)-inducible promoter T7 promoter on a plasmid in Eschrichia coli BL2(DE3). Cells were harvested by centrifugation and lysed with a French pressure cell (two passages at 124 MPa) in a buffer of 20 mM sodium phosphate (pH 7.4), 500 mM sodium chloride, 10 mM imidazole, and 10 mM 2-mercaptoethanol. The resulting crude lysate was centrifuged at 19,000×g for 60 min and the supernatant was passed through a […] filter. An AKTA FPLC system (GE Healthcare, Chicago, Ill.) was used to inject the filtrate (cleared crude lysate) onto a HisTrap affinity column (GE Healthcare) charged with Ni^2+ ions. Bound BiuH was eluted from the column with a linear gradient of 20-250 mM imidazole in the same buffer. […] Total protein concentration was determined with the BioRad (Hercules, Calif.) Bradford protein assay reagent and BiuH purity was verified by SDS-PAGE. […]
BiuH activity in the presence of urea: Biuret degradation reactions were performed by adding 10-20 μg purified BiuH to 0.5 ml of urea standards (0.5-8 M) in DI/RO water in 1.7 ml microcentrifuge tubes. […] Total ammonium (NH4^+) was quantified with the Berthelot assay. Residual biuret present in urea was determined by treating unspiked urea standards with BiuH and subtracting the amount of residual NH4^+ detected above. […] Net NH4^+ released from the spiked biuret by BiuH was calculated by subtracting the amounts of residual biuret and NH4^+ detected in the control treatments. […]

biuret hydrolase [3] = target: T2, biuret hydrolase (Rhizobium johnstonii, UniProt Q1M7F4); assay: Inhibition of biuret hydrolase by urea, kinetic constants; type: biochemical
T2 construct: six-histidine tag (C); made in house; host or cells: Escherichia coli BL21(DE3)

biuret hydrolase [4] = assay: BiuH activity in the presence of urea (Berthelot ammonia assay); type: biochemical, Herbaspirillum sp. BH-1
Procedure: as §1
BiuH activity in the presence of urea: Biuret degradation reactions were performed by adding 10-20 μg purified BiuH to 0.5 ml of urea standards (0.5-8 M) in DI/RO water in 1.7 ml microcentrifuge tubes. […] Total ammonium (NH4^+) was quantified with the Berthelot assay. Residual biuret present in urea was determined by treating unspiked urea standards with BiuH and subtracting the amount of residual NH4^+ detected above. […]

cyanuric acid hydrolase = conditions: no turnover observed; cited from earlier work

T2 sequence (Q1M7F4 whole entry): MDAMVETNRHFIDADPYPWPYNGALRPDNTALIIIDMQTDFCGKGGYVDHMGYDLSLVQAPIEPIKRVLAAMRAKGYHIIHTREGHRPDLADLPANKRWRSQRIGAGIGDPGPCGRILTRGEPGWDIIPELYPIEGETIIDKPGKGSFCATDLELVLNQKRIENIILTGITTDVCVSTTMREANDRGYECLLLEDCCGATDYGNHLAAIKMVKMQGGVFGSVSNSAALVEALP

In the case of `NC(N)=O` [urea], the inhibition by urea [1] is reported as “no inhibition was measurable”, the inhibition by urea ([2]; 4M urea, residual biuret in Fluka urea) is reported as “slight inhibition” and the inhibition by urea ([2]; 10,000 fold higher concentration of urea than biuret) is reported as “not inhibited”. The inhibition by urea ([2]; urea concentrations higher than 4M (up to 8.0 M), residual biuret in Fluka urea) was “stronger inhibition”, the inhibition by urea ([2]; urea up to 0.5M, 0.8 mM biuret, 30 microgram enzyme per ml, 30 minutes) was “not inhibited” and the Ki (biuret hydrolase [3]) was 34 mM. For the same molecule, the “inhibition of biuret hydrolase by urea” value (biuret hydrolase [4]; 4M urea, NH4+ released from residual biuret in 0.5-8.0 M Fluka urea) was “slight inhibition”, the “inhibition of biuret hydrolase by urea” value (biuret hydrolase [4]; urea up to 0.5M, biuret 0.8 mM, 30 microgram enzyme per ml, 30 minutes) was “not inhibited” and the “inhibition of triuret hydrolase by urea” value (triuret hydrolase; urea concentrations up to 50 mM) was “no inhibition”.
`NC(=O)NC(=O)NC(N)=O` [triuret] showed a Km (triuret hydrolase; read-out: Km for triuret) of 20 to 21 µM.
In the case of `O=C1CC(=O)NC(=O)N1` [barbituric acid], the “effect on cyanuric acid hydrolase” value (cyanuric acid hydrolase) is listed as “inhibitor”.
